Here are results for 9 compounds from ChEMBL document CHEMBL1150750, “Modified taxols, 4. Synthesis and biological activity of taxols modified in the side chain” (J Nat Prod, 1988).

In one data set the test system is KB. As to the kind of experiment: Cytotoxicity against human KB cells. Format: functional. The conditions noted are these: for EC50: Homo sapiens, KB, read-out: ED50 (the source's name).
Data set [1] concerns P388. In words: In vivo cytotoxicity against mouse P388 cells at 2.5 mg/kg. Format: functional.
Data set [2] has as its system P388. In words: In vivo cytotoxicity against mouse P388 cells at 10 mg/kg. Format: functional.
The subject of data set [3] is P388. In words: In vivo cytotoxicity against mouse P388 cells at 5 mg/kg. Format: functional.
Data set [4] concerns P388. As to the kind of experiment: In vivo cytotoxicity against mouse P388 cells at 20 mg/kg. Format: functional.
Data set [5] deals with P388. As to the kind of experiment: In vivo cytotoxicity against mouse P388 cells at 40 mg/kg. Format: functional.
Data set [6] can be described thus: Solubility in water by HPLC method. Format: physicochemical.
Data set [7] in a line: Chemical stability assessed as decomposition to taxol at pH 6.6 after 20 hrs. Format: physicochemical. The conditions noted are these: buffer, pH 6.6, 20 h.
Data set [8] in a line: Stability in water assessed as decomposition to taxol after 24 hrs. Format: physicochemical. The conditions noted are these: buffer.
In data set [9] the test system is P388. As to the kind of experiment: In vivo cytotoxicity against mouse P388 cells at 44 mg/kg. In kind it is functional.
Data set [10] deals with P388. As to the kind of experiment: In vivo cytotoxicity against mouse P388 cells at 11 mg/kg. In kind it is functional.
The test system of data set [11] is P388. As to the kind of experiment: In vivo cytotoxicity against mouse P388 cells at 22 mg/kg. Format: functional.
Data set [12] has as its system P388. In words: In vivo cytotoxicity against mouse P388 cells at 26 mg/kg. In kind it is functional.
Data set [13] has as its system P388. As to the kind of experiment: In vivo cytotoxicity against mouse P388 cells at 3.25 mg/kg. Format: functional.
Data set [14] relates to P388. In words: In vivo cytotoxicity against mouse P388 cells at 6.5 mg/kg. In kind it is functional.
Data set [15] relates to P388. In words: In vivo cytotoxicity against mouse P388 cells at 13 mg/kg. In kind it is functional.

Converted amounts (≈) assume the structure as drawn.

With `CC(=O)O[C@H]1C(=O)[C@@]2(C)[C@H]([C@H](OC(=O)c3ccccc3)[C@]3(O)C[C@H](OC(=O)[C@@H]4OC(=O)N(C(=O)c5ccccc5)[C@H]4c4ccccc4)C(C)=C1C3(C)C)[C@]1(OC(C)=O)CO[C@@H]1C[C@@H]2O`, the EC50 with KB was found to be 0.2 µg/mL (≈ 0.227 µM).

In the case of `CC(=O)O[C@H]1C(=O)[C@@]2(C)[C@H]([C@H](OC(=O)c3ccccc3)[C@]3(O)C[C@H](OC(=O)[C@H](OC(C)=O)[C@@H](NC(=O)c4ccccc4)c4ccccc4)C(C)=C1C3(C)C)[C@]1(OC(C)=O)CO[C@@H]1C[C@@H]2O`, the ED50 with KB is recorded as 2 ×10⁻⁵ ug/ml. Besides, the T/C (in general, the result in the treated group divided by that in the control group, in per cent) in the data set on P388 [1] worked out at 127%; in the data set with P388 [2], 130%; in the data set on P388 [3], 127%; in the data set with P388 [4] it was 140%.

For `CC(=O)O[C@H]1C(=O)[C@@]2(C)[C@H]([C@H](OC(=O)c3ccccc3)[C@]3(O)C[C@H](OC(=O)[C@H](OC(=O)CCN)[C@@H](NC(=O)c4ccccc4)c4ccccc4)C(C)=C1C3(C)C)[C@]1(OC(C)=O)CO[C@@H]1C[C@@H]2O.O=CO`, the T/C with P388 [5] is listed as 140%; in the data set on P388 [2], 117%; in the data set with P388 [4], 130%. The compound further displayed an ED50 in the data set with KB of 2 ×10⁻⁴ ug/ml. Besides, in data set [6], the concentration in solution (solubility) came to 2200 µg/mL. Besides, the Stability entry in data set [7] is listed as “Unstable”; in data set [8], 90%.

In the case of `CC(=O)O[C@H]1C(=O)[C@@]2(C)[C@H]([C@H](OC(=O)c3ccccc3)[C@]3(O)C[C@H](OC(=O)[C@H](O)[C@@H](NC(=O)c4ccccc4)c4ccccc4)C(C)=C1C3(C)C)[C@]1(OC(C)=O)CO[C@@H]1C[C@@H]2O` [PACLITAXEL], the ED50 in the data set with KB was 1 ×10⁻⁵ ug/ml. Moreover, the T/C turned out to be 147% in the data set with P388 [1], 137% with P388 [2], 156% in the data set with P388 [3] and 104% with P388 [4].

With `CC(=O)O[C@H]1C(=O)[C@@]2(C)[C@H]([C@H](OC(=O)c3ccccc3)[C@]3(O)C[C@H](OC(=O)[C@H](OC(=O)CCC(=O)O)[C@@H](NC(=O)c4ccccc4)c4ccccc4)C(C)=C1C3(C)C)[C@]1(OC(C)=O)CO[C@@H]1C[C@@H]2O`, the T/C with P388 [9] came out at 129%; in the data set on P388 [10], 112%; in the data set on P388 [11], 122%. In addition, in the data set on KB, the EC50 was 0.01 µg/mL (≈ 0.0105 µM).

For `CC(=O)O[C@H]1C(=O)[C@@]2(C)[C@H]([C@H](OC(=O)c3ccccc3)[C@]3(O)C[C@H](OC(=O)[C@H](O[Si](C)(C)C(C)(C)C)[C@H](NC(=O)c4ccccc4)c4ccccc4)C(C)=C1C3(C)C)[C@]1(OC(C)=O)CO[C@@H]1C[C@@H]2O`, the EC50 with KB came out at 0.3 µg/mL (≈ 0.31 µM).

Take `CC(=O)O[C@H]1C(=O)[C@]2(C)[C@@H](OC(C)=O)C[C@H]3OC[C@@]3(OC(C)=O)[C@H]2[C@H](OC(=O)c2ccccc2)[C@]2(O)C[C@H](OC(=O)[C@H](O)[C@@H](NC(=O)c3ccccc3)c3ccccc3)C(C)=C1C2(C)C` [PACLITAXEL C7 ACETYLCARBOXYLIC ACID ESTER]: the T/C in the data set with P388 [12] is given as 130%; with P388 [13], 128%; with P388 [14], 124%; in the data set with P388 [15], 127%. Moreover, the EC50 in the data set on KB turned out to be 0.004 µg/mL (≈ 0.00446 µM).

Regarding `CC(=O)O[C@H]1C(=O)[C@]2(C)[C@@H](OC(C)=O)C[C@H]3OC[C@@]3(OC(C)=O)[C@H]2[C@H](OC(=O)c2ccccc2)[C@]2(O)C[C@H](OC(=O)[C@H](OC(C)=O)[C@@H](NC(=O)c3ccccc3)c3ccccc3)C(C)=C1C2(C)C`, the T/C amounted to 104% in the data set on P388 [5], 105% in the data set with P388 [2] and 100% in the data set with P388 [4]. Moreover, the EC50 in the data set with KB is 0.2 µg/mL (≈ 0.213 µM).

Turning to `CC(=O)O[C@H]1C(=O)[C@@]2(C)[C@H]([C@H](OC(=O)c3ccccc3)[C@]3(O)C[C@H](OC(=O)[C@H](OC(=O)CCNC(=O)OCc4ccccc4)[C@@H](NC(=O)c4ccccc4)c4ccccc4)C(C)=C1C3(C)C)[C@]1(OC(C)=O)CO[C@@H]1C[C@@H]2O`, the ED50 with KB is on record as 1 ×10⁻⁴ ug/ml.
